These results are taken from ChEMBL document CHEMBL1151807, “Myxotyrosides A and B, Unusual rhamnosides from Myxococcus sp” (J Nat Prod, 2009).

Active and inactive are the calls of the source. The calls are words filed in the database; no cut-off is given here.

Common to all, as to type: functional, organism-based
For assay [1], the system named is Escherichia coli. Briefly: Inhibition of acyl-homoserinlactone-related quorum sensing activity in Escherichia coli MT102 harbouring pSB403 at 0 to 1000 nM after 4 hrs by fluorescence assay.
In assay [2] the test system is Pseudomonas putida. Briefly: Inhibition of acyl-homoserinlactone-related quorum sensing activity in Pseudomonas putida F117 pAS-C8 at 0 to 1000 nM after 4 hrs by fluorescence assay.
For assay [3], the system named is Pseudomonas putida. Briefly: Quorum sensing activity in Pseudomonas putida F117 pKR-C12 assessed as activation of acyl-homoserinlactone-related signaling at 10 ul after 24 hrs by thin-layer chromatography.
Assay [4] deals with Pseudomonas putida. Briefly: Inhibition of acyl-homoserinlactone-related quorum sensing activity in Pseudomonas putida F117 pKR-C12 at 10 ul after 24 hrs by thin-layer chromatography.
The test system of assay [5] is Chromobacterium violaceum. The assay can be described thus: Inhibition of acyl-homoserinlactone-related quorum sensing activity in Chromobacterium violaceum at 0 to 1000 nM after 4 hrs by fluorescence assay.
Assay [6] deals with Pseudomonas putida. The assay can be described thus: Quorum sensing activity in Pseudomonas putida F117 pAS-C8 assessed as activation of acyl-homoserinlactone-related signaling at 0 to 1000 nM after 4 hrs by fluorescence assay.
The test system of assay [7] is Chromobacterium violaceum. Briefly: Quorum sensing activity in Chromobacterium violaceum assessed as activation of acyl-homoserinlactone-related signaling at 0 to 1000 nM after 4 hrs by fluorescence assay.
The test system of assay [8] is Myxococcus xanthus DK 1622. The assay can be described thus: Inhibition of Myxococcus xanthus DK 1622 growth at 0.5 mg after 72 hrs by agar diffusion assay. In general terms: Agar diffusion results depend on both activity and mobility in agar.
Assay [9] deals with Escherichia coli. Briefly: Quorum sensing activity in Escherichia coli MT102 harbouring pSB403 assessed as activation of acyl-homoserinlactone-related signaling at 0 to 1000 nM after 4 hrs by fluorescence assay.
Assay [10] relates to Aspergillus ruber. Briefly: Antimicrobial activity against Eurotium rubrum at 50 ug/disk by disk diffusion assay.
The subject of assay [11] is Escherichia coli. Briefly: Antimicrobial activity against Escherichia coli at 50 ug/disk by disk diffusion assay.
The test system of assay [12] is Mycotypha microspora. Briefly: Antimicrobial activity against Mycotypha microspora at 50 ug/disk by disk diffusion assay.
For assay [13], the system named is [Chlorella] fusca. The assay can be described thus: Antimicrobial activity against Chlorella fusca at 50 ug/disk by disk diffusion assay. Conditions: Scenedesmus fuscus.
The subject of assay [14] is Plasmodium falciparum. Briefly: Antiplasmodial activity against Plasmodium falciparum.
In assay [15] the test system is Priestia megaterium. Briefly: Antimicrobial activity against Bacillus megaterium at 50 ug/disk by disk diffusion assay.
Assay [16] has as its system Microbotryum violaceum. The assay can be described thus: Antimicrobial activity against Microbotryum violaceum at 50 ug/disk by disk diffusion assay.

As for `CCCCCCCCCCCCC/C=C\C(=O)N/C=C\c1ccc(O[C@@H]2O[C@@H](C)[C@H](O)[C@@H](O)[C@H]2O)cc1`, the outcome in [1], in assay [2], in assay [4] and in [5] was Active. Moreover, the outcome in assay [3], in assay [6], in [7], in assay [8] and in assay [9] was inactive.
The IC50 is the midpoint of a concentration-inhibition curve. A high value points to lower potency. For the compound `CC(C)CCCCCCCCCCC/C=C\C(=O)N/C=C\c1ccc(O[C@@H]2O[C@@H](C)[C@H](O)[C@@H](O)[C@H]2O)cc1` [MYXOTYROSIDE A], the outcome in [10], in assay [3], in [11], in [12], in [13] and in assay [15] was inactive. Further, the result in [6], in [7], in assay [8], in assay [16] and in assay [9] was inactive. Besides, the result in assay [1], in assay [2], in assay [4] and in [5] was Active. The compound further came in with a concentration for half-maximal inhibition (IC50) in assay [14] of 7 µM.
